Experimental data from publication PMC9260081, “Design, Synthesis, and Evaluation of Anticonvulsant Activities of New Triazolopyrimidine Derivatives” (Frontiers in Chemistry, 2022).
Like-named read-outs stand apart in the source and are kept apart here.

What was measured:
[1] = test system: MES-induced seizures; test: Maximal electroshock seizure (MES) test; format: in vivo, mice; details: for minimal effective dose: dosages 30, 100, 300 mg/kg, read-out: MES screening, minimum dose whereby bioactivity was demonstrated in half or more of the mice
Method: (§1) Male Kunming mice with weights from 18 to 22 g were used in all the pharmacological experiments. The mice were housed in the standard cages with 10 each, where a controlled temperature (25°C ± 2°C) with a 12 h light/dark cycle was maintained. All animals had free access to food and water. All experiments and procedures involving animals were carried out according to the Guide for the Care and Use of Laboratory Animals (National Academies Press, Washington, D.C., United States). Approval from the local medical ethical committee was obtained before the experiment.
In the MES test, mice were subjected to ear stimulation using a 0.2 s 60-Hz 50-mA alternating current to elicit seizures. Tonic hind limb extension was considered as the seizure occurring, and the vanishing of tonic hind limb extension indicates the protection against the MES-induced seizures. Mice were injected intraperitoneally with test compounds at doses of 300, 100, and 30 mg/kg to evaluate their general anticonvulsant activity. Half and 4 h intervals were chosen to test the anti-MES activity. […] A series of doses of the tested compounds were injected into the mice with 10 in one group.

[2] = test system: PTZ-induced seizures; test: Subcutaneous pentylenetetrazole (PTZ) test; format: in vivo, mice; details: ip; for minimal effective dose: dosages 30, 100, 300 mg/kg, read-out: PTZ screening, minimum dose whereby bioactivity was demonstrated in half or more of the mice
Method: as §1
In the PTZ test, mice were subcutaneously administered with PTZ at the dose of 85 mg/kg. At this dose, mice can be elicited a threshold seizure characterized by an episode of clonic spasms and tonic spasms. After being treated with test compounds at doses of 300, 100, and 30 mg/kg, the mice were considered protected if a single episode of clonic spasms of more than 5 s duration was not obtained. The quantitative anticonvulsant activity (ED50) in the PTZ model was determined and calculated with the same method described in the MES test.

[3] = Neurotoxicity screening (rotarod test); format: in vivo; details: male, Kunming, mouse, in vivo, ip; rotarod, mice; 95% confidence interval in brackets
Method: as §1
(§2) The rotarod test was used to evaluate the neurotoxicity of the synthesized compounds. Before the formal experiments, mice were trained to climb on a rotating rod of diameter 3.2 cm with the rotation speed of 10 rpm. Test compounds in the three doses were intraperitoneally injected into the trained mice. […] The rough neurotoxic dose was obtained in which mice cannot maintain equilibrium on the rod for at least 1 min. The quantitative neurotoxic dose (TD50) of the test compounds was measured and calculated with the same method described in the MES test.

[4] = test system: ability to maintain equilibrium on rotating rod; test: Neurotoxicity screening (rotarod test); format: in vivo; details: i.p., dosages 30, 100, 300 mg/kg
Method: as §1, §2

[5] = Mus musculus, ip, mice, 0.5 h after injection
[6] = Mus musculus, ip, mice, 4 h after injection
[7] = Mus musculus, mice, 0.5 h after injection
[8] = Mus musculus, mice, 4 h after injection

Structure (SMILES) | minimal effective dose [1, 5] | minimal effective dose [1, 6] | ED50 ([1]; Mus musculus, ip, mice, 95% confidence interval in brackets, read-out: ED50 MES) | PI MES, protective index (TD50/ED50) ([1]; TD50 rotarod / ED50 MES, mice i.p.) | minimal effective dose [2, 7] | minimal effective dose [2, 8] | ED50 ([2]; Mus musculus, mice, 95% confidence interval in brackets, read-out: ED50 scPTZ) | PI scPTZ, protective index (TD50/ED50) ([2]; male, Kunming, mouse, in vivo) | TD50 at 30 min [3] | NT screening (rotarod), minimum neurotoxic dose in half or more of the mice ([4]; 0.5 h after injection) | NT screening (rotarod), minimum neurotoxic dose in half or more of the mice ([4]; 4 h after injection)
c1ccc(COc2ccc(-c3ccnc4ncnn34)cc2)cc1 [Compound 6e, 7-(4-(Benzyloxy)phenyl)-[1,2,4]triazolo[1,5-a]pyrimidine] | 30 mg/kg | 300 mg/kg | 38 mg/kg | 9.6 | 30 mg/kg | > 300 mg/kg | 28.4 mg/kg | 12.9 | 366 mg/kg | 300 mg/kg | — (A dash indicates the absence of anticonvulsant activity and neurotoxicity at the maximum dose administered (300 mg/kg))
Brc1ccc(-c2ccnc3ncnn23)cc1 [Compound 3f, 7-(4-Bromophenyl)-[1,2,4]triazolo[1,5-a]pyrimidine] | > 300 mg/kg | > 300 mg/kg | – | – | > 300 mg/kg | > 300 mg/kg | – | – | – | — (A dash indicates the absence of anticonvulsant activity and neurotoxicity at the maximum dose administered (300 mg/kg)) | — (A dash indicates the absence of anticonvulsant activity and neurotoxicity at the maximum dose administered (300 mg/kg))
Clc1ccc(-c2ccnc3ccnn23)cc1 [Compound 4d, 7-(4-Chlorophenyl)pyrazolo[1,5-a]pyrimidine] | > 300 mg/kg | > 300 mg/kg | – | – | > 300 mg/kg | > 300 mg/kg | – | – | – | — (A dash indicates the absence of anticonvulsant activity and neurotoxicity at the maximum dose administered (300 mg/kg)) | — (A dash indicates the absence of anticonvulsant activity and neurotoxicity at the maximum dose administered (300 mg/kg))
Clc1ccc(-c2ccnc3ncnn23)cc1 [Compound 3d, 7-(4-Chlorophenyl)-[1,2,4]triazolo[1,5-a]pyrimidine] | > 300 mg/kg | > 300 mg/kg | – | – | > 300 mg/kg | > 300 mg/kg | – | – | – | — (A dash indicates the absence of anticonvulsant activity and neurotoxicity at the maximum dose administered (300 mg/kg)) | — (A dash indicates the absence of anticonvulsant activity and neurotoxicity at the maximum dose administered (300 mg/kg))
O=[N+]([O-])c1ccc(-c2ccnc3ncnn23)cc1 [Compound 3g, 7-(4-Nitrophenyl)-[1,2,4]triazolo[1,5-a]pyrimidine] | > 300 mg/kg | > 300 mg/kg | – | – | > 300 mg/kg | > 300 mg/kg | – | – | – | — (A dash indicates the absence of anticonvulsant activity and neurotoxicity at the maximum dose administered (300 mg/kg)) | — (A dash indicates the absence of anticonvulsant activity and neurotoxicity at the maximum dose administered (300 mg/kg))
COc1ccc(-c2ccnc3ccnn23)cc1 [Compound 4i, 7-(4-Methoxyphenyl)pyrazolo[1,5-a]pyrimidine] | > 300 mg/kg | > 300 mg/kg | – | – | 300 mg/kg | > 300 mg/kg | – | – | – | — (A dash indicates the absence of anticonvulsant activity and neurotoxicity at the maximum dose administered (300 mg/kg)) | — (A dash indicates the absence of anticonvulsant activity and neurotoxicity at the maximum dose administered (300 mg/kg))
Fc1ccc(-c2ccnc3ncnn23)cc1 [Compound 3b, 7-(4-Fluorophenyl)-[1,2,4]triazolo[1,5-a]pyrimidine] | 300 mg/kg | > 300 mg/kg | – | – | 300 mg/kg | > 300 mg/kg | – | – | – | — (A dash indicates the absence of anticonvulsant activity and neurotoxicity at the maximum dose administered (300 mg/kg)) | — (A dash indicates the absence of anticonvulsant activity and neurotoxicity at the maximum dose administered (300 mg/kg))
Fc1ccc(-c2ccnc3ccnn23)cc1 [Compound 4b, 7-(4-Fluorophenyl)pyrazolo[1,5-a]pyrimidine] | > 300 mg/kg | > 300 mg/kg | – | – | > 300 mg/kg | > 300 mg/kg | – | – | – | — (A dash indicates the absence of anticonvulsant activity and neurotoxicity at the maximum dose administered (300 mg/kg)) | — (A dash indicates the absence of anticonvulsant activity and neurotoxicity at the maximum dose administered (300 mg/kg))
Clc1ccc(-c2ccnc3ncnn23)c(Cl)c1 [Compound 3e, 7-(2,4-Dichlorophenyl)-[1,2,4]triazolo[1,5-a]pyrimidine] | 100 mg/kg | > 300 mg/kg | – | – | 100 mg/kg | > 300 mg/kg | – | – | – | — (A dash indicates the absence of anticonvulsant activity and neurotoxicity at the maximum dose administered (300 mg/kg)) | — (A dash indicates the absence of anticonvulsant activity and neurotoxicity at the maximum dose administered (300 mg/kg))
Cc1ccc(-c2ccnc3ncnn23)cc1 [Compound 3h, 7-(P-tolyl)-[1,2,4]triazolo[1,5-a]pyrimidine] | 300 mg/kg | > 300 mg/kg | – | – | 100 mg/kg | > 300 mg/kg | – | – | – | — (A dash indicates the absence of anticonvulsant activity and neurotoxicity at the maximum dose administered (300 mg/kg)) | — (A dash indicates the absence of anticonvulsant activity and neurotoxicity at the maximum dose administered (300 mg/kg))
Brc1ccc(-c2ccnc3ccnn23)cc1 [Compound 4f, 7-(4-Bromophenyl)pyrazolo[1,5-a]pyrimidine] | > 300 mg/kg | > 300 mg/kg | – | – | > 300 mg/kg | > 300 mg/kg | – | – | – | — (A dash indicates the absence of anticonvulsant activity and neurotoxicity at the maximum dose administered (300 mg/kg)) | — (A dash indicates the absence of anticonvulsant activity and neurotoxicity at the maximum dose administered (300 mg/kg))
CCCOc1ccc(-c2ccnc3ncnn23)cc1 [Compound 6a, 7-(4-Propoxyphenyl)-[1,2,4]triazolo[1,5-a]pyrimidine] | 300 mg/kg | > 300 mg/kg | – | – | 300 mg/kg | > 300 mg/kg | – | – | – | — (A dash indicates the absence of anticonvulsant activity and neurotoxicity at the maximum dose administered (300 mg/kg)) | — (A dash indicates the absence of anticonvulsant activity and neurotoxicity at the maximum dose administered (300 mg/kg))
Cc1ccc(-c2ccnc3ccnn23)cc1 [Compound 4h, 7-(P-tolyl)pyrazolo[1,5-a]pyrimidine] | > 300 mg/kg | > 300 mg/kg | – | – | 300 mg/kg | > 300 mg/kg | – | – | – | — (A dash indicates the absence of anticonvulsant activity and neurotoxicity at the maximum dose administered (300 mg/kg)) | — (A dash indicates the absence of anticonvulsant activity and neurotoxicity at the maximum dose administered (300 mg/kg))
